What was measured:
Format in all cases: physicochemical
[1] = Gravimetric Vapour Sorption (GVS); details: 25° C.
Method: Sorption isotherms were obtained using a Hiden Isochema moisture sorption analyser (model IGAsorp), controlled by IGAsorp Systems Software V6.50.48. The sample was maintained at a constant temperature (25° C.) by the instrument controls. The humidity was controlled by mixing streams of dry and wet nitrogen, with a total flow of 250 ml.min^−1. The instrument was verified for relative humidity content by measuring three calibrated Rotronic salt solutions (10-50-88%). The weight change of the sample was monitored as a function of humidity by a microbalance (accuracy+/−0.005 mg). A defined amount of sample was placed in a tared mesh stainless steel basket under ambient conditions. A full experimental cycle typically consisted of three scans (sorption, desorption and sorption) at a constant temperature (25° C.) and 10% RH intervals over a 0-90% range (60 minutes for each humidity level).

[2] = Slow evaporative crystallisation trials (solubility observed in solvents)
Method: Into crystallisation tubes (5 ml vol) was charged 20 mg of amorphous (S)—N-(1-deutero-1-(3-chloro-5-fluoro-2-((2-methyl-4-(1-methyl-1H-1,2,4-triazol-5-yl)quinolin-8-yloxy)methyl)phenyl)ethyl)-2-(difluoromethoxy)acetamide. A total of 26 solvents or solvent mixtures were charged to the tubes and the solids agitated over a period of 48 hours at RT and cooled to 0° C.
Slow evaporative crystallisation trials were continued by transferring samples to smaller tapered tubes without agitation and needle bleeds fitted. Slow evaporative crystallisation was attempted with scratching at various points to help induce crystallisation.
Following two weeks, liquors remained in most cases with no evidence of crystallisation. At this point heteronuclear seeding was attempted with a very similar crystalline API source. This had no impact upon the results. The majority of test cases returned clear glasses.

[3] = Mixed solvent cooling crystallization trials (solubility in six solvents); details: 200 mg amorphous material; MeOH, MeCN, MEK, THF, EtOAc, TBME; solutions at 0.5 vol., 25° C., ca. 66 hours equilibration
Method: Amorphous (S)—N-(1-deutero-1-(3-chloro-5-fluoro-2-((2-methyl-4-(1-methyl-1H-1,2,4-triazol-5-yl)quinolin-8-yloxy)methyl)phenyl)ethyl)-2-(difluoromethoxy)acetamide, 6×200 mg, was weighed into crystallisation tubes and charged with solvents (MeOH, MeCN, MEK, THE, EtOAc and TBME) in 0.05 ml (0.25 vol.) aliquots at 25° C. […] Additional solvent (made up to 0.5 vol.) yielded thick yellow solutions. The solutions were equilibrated at 25° C. for ca. 66 hours though this had no impact on the yellow solutions.
Additional solvent was charged to each API solution up to 1 ml (5 vol.) and the solutions were heated to 40° C. and clarified. Heptane was charged in 50 μL aliquots to each solution before cooling to 25° C. over 1 hour. The volume charged and observations at 40 and 25° C. are detailed in Table 3.

| GVS overall weight change ([1]; between 0 and 90% RH) | GVS hysteresis ([1]; between 10 and 80% RH) | solubility in solvents ([2]; 20 mg amorphous material, 26 solvents or solvent mixtures, agitated 48 hours at RT and cooled to 0° C., in the majority of solvents) | solubility in solvents (continued trials) ([2]; continued slow evaporation without agitation, scratching, heteronuclear seeding, 3 weeks) | solubility in the 6 solvents investigated [3] | Structure (SMILES) |
| --- | --- | --- | --- | --- | --- |
| ca. 1.9 wt % | 0.2-0.4 wt % |  |  |  | [2H][C@@](C)(NC(=O)COC(F)F)c1cc(F)cc(Cl)c1COc1cccc2c(-c3ncnn3C)cc(C)nc12 [Form A, (S)—N-(1-deutero-1-(3-chloro-5-fluoro-2-((2-methyl-4-(1-methyl-1H-1,2,4-triazol-5-yl)quinolin-8-yloxy)methyl)phenyl)ethyl)-2-(difluoromethoxy)acetamide monohydrate] |
|  |  | extreme solubility | extreme solubility | high solubility | [2H][C@@](C)(NC(=O)COC(F)F)c1cc(F)cc(Cl)c1COc1cccc2c(-c3ncnn3C)cc(C)nc12 [(S)—N-(1-deutero-1-(3-chloro-5-fluoro-2-((2-methyl-4-(1-methyl-1H-1,2,4-triazol-5-yl)quinolin-8-yloxy)methyl)phenyl)ethyl)-2-(difluoromethoxy)acetamide] |

Source: US12692246B2, “Solid form of a bradykinin B2-receptor antagonist” (PHARVARIS GMBH, priority 2021, dated 2026)
